PMC12336439 (Archiv Der Pharmazie, 2025)
Values joined by “and” are separate entries in the source; they are usually repeats but may differ in a detail not shown here. Identical values can stand only once.

What was measured:
Type in all cases: binding
USP7 [1] = molecular target: T1, USP7 (Homo sapiens, UniProt Q93009); test: Differential scanning fluorimetry (DSF), melting temperature shift of USP7; conditions: 8 µM protein, 250 µM compound (1:31.25)
T1 construct: USP7 catalytic domain (USP7CD) (208‐560); made in house
T1 sequence (Q93009 with tags, fused parts or gaps): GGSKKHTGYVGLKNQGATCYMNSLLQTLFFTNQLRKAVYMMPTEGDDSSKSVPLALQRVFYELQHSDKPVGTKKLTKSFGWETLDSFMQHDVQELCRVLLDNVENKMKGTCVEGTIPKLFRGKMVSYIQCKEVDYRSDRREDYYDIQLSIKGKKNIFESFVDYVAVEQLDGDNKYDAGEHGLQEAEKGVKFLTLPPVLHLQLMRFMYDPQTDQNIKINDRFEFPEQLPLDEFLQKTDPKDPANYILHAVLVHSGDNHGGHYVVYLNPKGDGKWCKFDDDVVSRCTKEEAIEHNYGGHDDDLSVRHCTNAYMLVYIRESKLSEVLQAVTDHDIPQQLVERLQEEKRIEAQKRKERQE
Description: The influence of the synthesized compounds on the melting temperature (T m) of USP7 and its mutant USP7asoc (active site only cysteine) was investigated by DSF. USP7asoc only retains the catalytic Cys223 while all the other six cysteines are mutated to serine. DSF was selected for initial assessment since it is an efficient and rapid primary screening method readily available to our lab.
An important consideration when assessing covalent inhibitors is the time dependence of covalent target occupancy and thus potency, which is determined by the reaction kinetics of the covalent binding event. To allow for drawing conclusions on compounds with slower reaction kinetics, incubation times of 30 min, 4 h, and 24 h at 20°C were chosen for the DSF screen with USP7 (Table 1 and Figures 2 and 3). The threshold at which compounds were considered (de‐)stabilizers was defined at 0.5°C. In parallel, the intrinsic reactivity of a set of representative compounds was evaluated in a glutathione reactivity assay. […] Data obtained from the GSH reactivity studies are shown in Supporting Information S2: Table S2.1 and Figures S2.1–2.3.
The melting temperatures of USP7 and USP7asoc in the presence or absence of fragments were determined by DSF on a Qiagen Rotor‐Q Model‐5‐Plex HRM real‐time PCR instrument (Qiagen, Hilden, Germany). SYPRO Orange (Life Technologies Corporation, Eugene, OR, USA) was used as a fluorescent dye at a final concentration of 5x. The protein concentration was 8 µM, and the final compound concentration was 250 µM, corresponding to a protein‐to‐compound ratio of 1:31.25. All compounds were dissolved in dimethyl sulfoxide (DMSO) and the proteins in Tris buffer (25 mM Tris pH 8.0, 150 mM NaCl, 5 mM TCEP, 5% (v/v) DMSO). All measurements were performed after 30 min, 4 h, and 24 h of incubation and at least in triplicate. DSF experiments were carried out with a constant heating rate of 270°C/h. The temperature was ramped from 28°C to 60°C–70°C with excitation and emission filters set at 470 nm and 610 nm, respectively. The melting temperatures (T m) of USP7 and USP7asoc were determined from the maxima of the first derivatives of the melting curves in OriginPro2020 (OriginLab, Northampton, MA, USA). The ∆T m was calculated by subtraction of the T m of the protein sample with pure DMSO from the T m of the protein sample mixed with compound. Error propagation was used to average multiple runs for a compound. A compound was considered to be a hit if the shift in the ∆T m was at least 0.50°C [55].

[2] = molecular target: T2, USP7asoc (active site only cysteine) (Homo sapiens, UniProt Q93009, C300S/C315S/C334S/C478S/C488S/C510S); test: Differential scanning fluorimetry (DSF), melting temperature shift of USP7asoc mutant; conditions: 8 µM protein, 250 µM compound (1:31.25)
T2 construct: (208‐560, C300/315/334/448/478/510S); made in house
T2 sequence (Q93009 with tags, fused parts or gaps C300S/C315S/C334S/C478S/C488S/C510S): as the sequence (Q93009 with tags, fused parts or gaps) above, with C96S, C111S, C130S, C274S, C284S, C306S counted along it
Method: USP7asoc only retains the catalytic Cys223 while all the other six cysteines are mutated to serine. DSF was selected for initial assessment since it is an efficient and rapid primary screening method readily available to our lab. […] An important consideration when assessing covalent inhibitors is the time dependence of covalent target occupancy and thus potency, which is determined by the reaction kinetics of the covalent binding event. To allow for drawing conclusions on compounds with slower reaction kinetics, incubation times of 30 min, 4 h, and 24 h at 20°C were chosen for the DSF screen with USP7 (Table 1 and Figures 2 and 3). The threshold at which compounds were considered (de‐)stabilizers was defined at 0.5°C. In parallel, the intrinsic reactivity of a set of representative compounds was evaluated in a glutathione reactivity assay. […] The expression and purification of USP7 catalytic domain (USP7CD) (208‐560) and USP7asoc (active site only cysteine) by using a pET24a(+)_HLT_USP7 construct were performed as previously described. […] For the USP7asoc, six of the seven cysteines are mutated to serines (208‐560, C300/315/334/448/478/510S). All utilized protein sequences are depicted in Supporting Information S2: Table S.3.1. The melting temperatures of USP7 and USP7asoc in the presence or absence of fragments were determined by DSF on a Qiagen Rotor‐Q Model‐5‐Plex HRM real‐time PCR instrument (Qiagen, Hilden, Germany). SYPRO Orange (Life Technologies Corporation, Eugene, OR, USA) was used as a fluorescent dye at a final concentration of 5x. The protein concentration was 8 µM, and the final compound concentration was 250 µM, corresponding to a protein‐to‐compound ratio of 1:31.25. All compounds were dissolved in dimethyl sulfoxide (DMSO) and the proteins in Tris buffer (25 mM Tris pH 8.0, 150 mM NaCl, 5 mM TCEP, 5% (v/v) DMSO). All measurements were performed after 30 min, 4 h, and 24 h of incubation and at least in triplicate. DSF experiments were carried out with a constant heating rate of 270°C/h. The temperature was ramped from 28°C to 60°C–70°C with excitation and emission filters set at 470 nm and 610 nm, respectively. The melting temperatures (T m) of USP7 and USP7asoc were determined from the maxima of the first derivatives of the melting curves in OriginPro2020 (OriginLab, Northampton, MA, USA). The ∆T m was calculated by subtraction of the T m of the protein sample with pure DMSO from the T m of the protein sample mixed with compound. Error propagation was used to average multiple runs for a compound. A compound was considered to be a hit if the shift in the ∆T m was at least 0.50°C [55].

USP7 [3] = molecular target: T1, USP7; test: Intact protein MS (UHPLC-ESI-MS), covalent modification of USP7; conditions: 24 h incubation at 20°C, protein-to-compound ratio 1:31.25
Method: The DSF results described above were validated by UHPLC‐ESI‐MS to verify possible covalent binding through a corresponding mass shift. Intact protein MS is an important screening method in irreversible‐covalent hit identification and is especially suitable for covalent fragment‐based drug discovery (FBDD). It allows for the identification of covalent binders by detecting covalent protein‐compound adducts, thus making use of the stability of the covalent bond.
USP7 was prepared in Tris buffer (25 mM Tris pH 8.0, 150 mM NaCl, 5 mM TCEP) with a protein‐to‐compound ratio of 1:31.25 and 5% (v/v) DMSO. The protein‐compound mixtures were all incubated at 20°C for 24 h on a rotating shaker. The analysis of intact protein mass was carried out using UHPLC‐ESI‐MS measurements, with data acquisition and data analysis as previously described.

USP7asoc = molecular target: T3, USP7asoc (Homo sapiens, UniProt Q93009, C300S/C315S/C334S/C478S/C488S/C510S); test: Intact protein MS (UHPLC-ESI-MS), covalent modification of USP7asoc; conditions: 24 h incubation at 20°C, protein-to-compound ratio 1:31.25
T3 construct: (208‐560, C300/315/334/448/478/510S); made in house
T3 sequence (Q93009 with tags, fused parts or gaps C300S/C315S/C334S/C478S/C488S/C510S): as the sequence (Q93009 with tags, fused parts or gaps) above, with C96S, C111S, C130S, C274S, C284S, C306S counted along it
Method: The DSF results described above were validated by UHPLC‐ESI‐MS to verify possible covalent binding through a corresponding mass shift. Intact protein MS is an important screening method in irreversible‐covalent hit identification and is especially suitable for covalent fragment‐based drug discovery (FBDD). It allows for the identification of covalent binders by detecting covalent protein‐compound adducts, thus making use of the stability of the covalent bond. USP7 was prepared in Tris buffer (25 mM Tris pH 8.0, 150 mM NaCl, 5 mM TCEP) with a protein‐to‐compound ratio of 1:31.25 and 5% (v/v) DMSO. The protein‐compound mixtures were all incubated at 20°C for 24 h on a rotating shaker. The analysis of intact protein mass was carried out using UHPLC‐ESI‐MS measurements, with data acquisition and data analysis as previously described.

Row | Structure (SMILES) | ∆T m ± SD USP7 (USP7 [1]; 4 h incubation at 20°C) | ∆T m ± SD USP7 (USP7 [1]; 24 h incubation at 20°C) | ∆T m ± SD USP7asoc ([2]; 30 min incubation at 20°C) | ∆T m ± SD USP7asoc ([2]; 4 h incubation at 20°C) | ∆T m ± SD USP7asoc ([2]; 24 h incubation at 20°C) [°C] | ∆T m ± SD USP7 (USP7 [1]; 30 min incubation at 20°C) | protein species in deconvoluted mass spectrum of USP7 (USP7 [3]) | protein species in deconvoluted mass spectrum of USP7asoc (USP7asoc)
1 | Cn1ccc(-c2cccc3cnc(Nc4nc(Cl)ccc4[N+](=O)[O-])cc23)c1 [8b, N‐(6‐Chloro‐3‐nitropyridin‐2‐yl)‐5‐(1‐methyl‐1H‐pyrrol‐3‐yl)isoquinolin‐3‐amine] | –0.10 ± 0.09 °C | 0.15 ± 0.09 °C | –0.30 ± 0 °C | 0.35 ± 0.09 °C | 0.45 ± 0 | – | unmodified protein species was dominant with an additional smaller signal of the mono‐arylated species | only showed unmodified protein for USP7asoc
2 | O=[N+]([O-])c1ccc(Cl)nc1Nc1cc2c(-c3ccc(-c4cccnc4)cc3)cccc2cn1 [8h, N‐(6‐Chloro‐3‐nitropyridin‐2‐yl)‐5‐[4‐(pyridin‐3‐yl)phenyl]isoquinolin‐3‐amine] | 0.00 ± 0 °C | 0.05 ± 0.09 °C | 0.15 ± 0 °C | 0.35 ± 0.09 °C | 0.28 ± 0.04 | –0.25 ± 0.09 °C | unmodified USP7 and USP7asoc as the main peak | unmodified USP7 and USP7asoc as the main peak
3 | O=[N+]([O-])c1ccc(F)nc1Nc1cc2c(-c3ccc4ccccc4c3)cccc2cn1 [7g, N‐(6‐Fluoro‐3‐nitropyridin‐2‐yl)‐5‐(naphthalen‐2‐yl)isoquinolin‐3‐amine] | 0.30 ± 0 °C | 0.25 ± 0.09 °C | 0.63 °C and 0.63 ± 0.07 °C | 0.25 ± 0.10 °C | 0.38 ± 0.06 | 0.10 ± 0.12 °C | mainly displayed the unmodified USP7 and USP7asoc species | mainly displayed the unmodified USP7 and USP7asoc species
4 | O=[N+]([O-])c1ccc(Cl)nc1Nc1cc2c(-c3ccc4ccccc4c3)cccc2cn1 [8g, N‐(6‐Chloro‐3‐nitropyridin‐2‐yl)‐5‐(naphthalen‐2‐yl)isoquinolin‐3‐amine] | 0.30 ± 0 °C | 0.25 ± 0.09 °C | 0.63 °C and 0.63 ± 0.07 °C | 0.38 ± 0.08 °C | 0.40 ± 0.17 | 0.25 ± 0.12 °C | only unmodified USP7 and USP7asoc were detected | only unmodified USP7 and USP7asoc were detected

Now from value to molecule, other results behind:

Row | ∆T m ± SD USP7 (USP7 [1]; 4 h incubation at 20°C) | ∆T m ± SD USP7 (USP7 [1]; 24 h incubation at 20°C) | ∆T m ± SD USP7asoc ([2]; 30 min incubation at 20°C) | ∆T m ± SD USP7asoc ([2]; 4 h incubation at 20°C) | ∆T m ± SD USP7asoc ([2]; 24 h incubation at 20°C) [°C] | ∆T m ± SD USP7 (USP7 [1]; 30 min incubation at 20°C) | Structure (SMILES) | protein species in deconvoluted mass spectrum of USP7 (USP7 [3]) | protein species in deconvoluted mass spectrum of USP7asoc (USP7asoc)
5 | – | – | 0.48 ± 0.09 °C | –0.23 ± 0.08 °C | – | 0.00 ± 0.12 °C | O=[N+]([O-])c1ccc(F)nc1Nc1cc2c(-c3cnn(CCO)c3)cccc2cn1 [7f, 2‐(4‐{3‐[(6‐Fluoro‐3‐nitropyridin‐2‐yl)amino]isoquinolin‐5‐yl}‐1H‐pyrazol‐1‐yl)ethan‐1‐ol] | single‐arylated USP7 and USP7asoc as a main signal | single‐arylated USP7 and USP7asoc as a main signal
6 | 0.30 ± 0 °C | 0.25 ± 0.09 °C | –0.20 ± 0.09 °C | 0.45 ± 0.12 °C | 0.42 ± 0.16 | 0.25 ± 0.09 °C | CCCn1cc(-c2cccc3cnc(Nc4nc(Cl)ccc4[N+](=O)[O-])cc23)cn1 [8d, N‐(6‐Chloro‐3‐nitropyridin‐2‐yl)‐5‐(1‐propyl‐1H‐pyrazol‐4‐yl)isoquinolin‐3‐amine] | unmodified USP7 and USP7asoc were again dominant | unmodified USP7 and USP7asoc were again dominant
7 | –0.15 ± 0 °C | –0.15 ± 0 °C | – | – | – | –0.40 ± 0.09 °C | O=[N+]([O-])c1ccc(Cl)nc1Nc1cc2c(-c3cnn(C4CC4)c3)cccc2cn1 [8e, N‐(6‐Chloro‐3‐nitropyridin‐2‐yl)‐5‐(1‐cyclopropyl‐1H‐pyrazol‐4‐yl)isoquinolin‐3‐amine] | mainly showed signals for unmodified USP7 and USP7asoc | mainly showed signals for unmodified USP7 and USP7asoc
